One experiment concerns the target MtMetAP1a (Mycobacterium tuberculosis, UniProt P9WK21). As to the kind of experiment: MetAP enzyme inhibition assay. It counts as biochemical. The following applies: for selectivity for both MtMetAPs over human MetAPs: MtMetAP1a and MtMetAP1c relative to HsMetAP1 and HsMetAP2, from IC50 values.
The target in another experiment is MtMetAP1c (Mycobacterium tuberculosis, UniProt P9WK19). Briefly: MetAP enzyme inhibition assay. It counts as biochemical.
In another experiment the test system is M. tuberculosis H37Rv. As to the kind of experiment: Minimum Inhibitory Concentration in replicating M. tuberculosis. The following applies: ratio of M.I.C. values. It counts as cell-based, Mycobacterium tuberculosis.
The subject of experiment [1] is aged non-growing M. tuberculosis H37Ra. As to the kind of experiment: Activity on aged non-growing M. tuberculosis. The following applies: 2 month old H37Ra culture, acid 7H9 pH5.5, 1% oxygen.

SMILES strings stand for the structures.

MtMetAP1a, sequence (P9WK21 whole entry): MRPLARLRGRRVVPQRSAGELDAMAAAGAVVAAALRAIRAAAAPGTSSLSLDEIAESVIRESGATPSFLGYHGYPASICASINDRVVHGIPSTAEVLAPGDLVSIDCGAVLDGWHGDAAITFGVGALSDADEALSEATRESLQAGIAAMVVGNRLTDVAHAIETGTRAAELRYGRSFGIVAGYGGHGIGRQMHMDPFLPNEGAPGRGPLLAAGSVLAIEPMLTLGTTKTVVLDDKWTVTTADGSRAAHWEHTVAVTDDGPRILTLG
MtMetAP1c, sequence (P9WK19 whole entry): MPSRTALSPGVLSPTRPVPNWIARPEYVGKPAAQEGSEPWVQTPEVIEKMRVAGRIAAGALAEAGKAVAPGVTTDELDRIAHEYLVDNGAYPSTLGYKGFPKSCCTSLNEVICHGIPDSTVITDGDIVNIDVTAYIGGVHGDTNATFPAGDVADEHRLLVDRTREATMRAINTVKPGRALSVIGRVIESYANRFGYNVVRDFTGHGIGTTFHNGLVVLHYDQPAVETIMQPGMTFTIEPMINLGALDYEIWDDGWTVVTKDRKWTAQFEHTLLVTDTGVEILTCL

On to `Oc1c(Br)cc(Cl)c2cccnc12` [CLBQ14], for which the IC50 worked out at 5.44 µM against MtMetAP1a and 4.92 µM against MtMetAP1c. Also, the “selectivity for both MtMetAPs over human MetAPs” value on MtMetAP1a is recorded as “greater than 19 folds”. For the same compound, the “potency in replicating M. tuberculosis culture relative to CQ” value with M. tuberculosis H37Rv was “two-fold”. Moreover, in experiment [1], the “M.I.C. Aged non-growing M. tuberculosis” value was in the range of 0.65 to 1.62 µg/mL.
In the case of `Oc1c(I)cc(Cl)c2cccnc12` [Clioquinol (CQ), clioquinol, reference compound], on MtMetAP1a, half-maximal inhibition (IC50) was put at 9.25 µM and the “selectivity for both MtMetAPs over human MetAPs” value was “less than 10 folds”. This compound showed an IC50 against MtMetAP1c of 11.2 µM.
